Target: Xanthine dehydrogenase/oxidase (Homo sapiens, UniProt P47989)
Experiment: xanthine oxidase activity: Xanthine oxidase inhibition was determined using a standard fluorescence-based assay for xanthine oxidase activity (McHale A, Grimes H, Coughlan M P: Int J Biochem. 10:317-9, 1979) with minor variations. […] Experiments on test compounds were performed in triplicate in multi-well plates using 10 concentrations of each compound that ranged over a 3-fold dilution.

Xanthine dehydrogenase/oxidase, sequence (P47989 whole entry): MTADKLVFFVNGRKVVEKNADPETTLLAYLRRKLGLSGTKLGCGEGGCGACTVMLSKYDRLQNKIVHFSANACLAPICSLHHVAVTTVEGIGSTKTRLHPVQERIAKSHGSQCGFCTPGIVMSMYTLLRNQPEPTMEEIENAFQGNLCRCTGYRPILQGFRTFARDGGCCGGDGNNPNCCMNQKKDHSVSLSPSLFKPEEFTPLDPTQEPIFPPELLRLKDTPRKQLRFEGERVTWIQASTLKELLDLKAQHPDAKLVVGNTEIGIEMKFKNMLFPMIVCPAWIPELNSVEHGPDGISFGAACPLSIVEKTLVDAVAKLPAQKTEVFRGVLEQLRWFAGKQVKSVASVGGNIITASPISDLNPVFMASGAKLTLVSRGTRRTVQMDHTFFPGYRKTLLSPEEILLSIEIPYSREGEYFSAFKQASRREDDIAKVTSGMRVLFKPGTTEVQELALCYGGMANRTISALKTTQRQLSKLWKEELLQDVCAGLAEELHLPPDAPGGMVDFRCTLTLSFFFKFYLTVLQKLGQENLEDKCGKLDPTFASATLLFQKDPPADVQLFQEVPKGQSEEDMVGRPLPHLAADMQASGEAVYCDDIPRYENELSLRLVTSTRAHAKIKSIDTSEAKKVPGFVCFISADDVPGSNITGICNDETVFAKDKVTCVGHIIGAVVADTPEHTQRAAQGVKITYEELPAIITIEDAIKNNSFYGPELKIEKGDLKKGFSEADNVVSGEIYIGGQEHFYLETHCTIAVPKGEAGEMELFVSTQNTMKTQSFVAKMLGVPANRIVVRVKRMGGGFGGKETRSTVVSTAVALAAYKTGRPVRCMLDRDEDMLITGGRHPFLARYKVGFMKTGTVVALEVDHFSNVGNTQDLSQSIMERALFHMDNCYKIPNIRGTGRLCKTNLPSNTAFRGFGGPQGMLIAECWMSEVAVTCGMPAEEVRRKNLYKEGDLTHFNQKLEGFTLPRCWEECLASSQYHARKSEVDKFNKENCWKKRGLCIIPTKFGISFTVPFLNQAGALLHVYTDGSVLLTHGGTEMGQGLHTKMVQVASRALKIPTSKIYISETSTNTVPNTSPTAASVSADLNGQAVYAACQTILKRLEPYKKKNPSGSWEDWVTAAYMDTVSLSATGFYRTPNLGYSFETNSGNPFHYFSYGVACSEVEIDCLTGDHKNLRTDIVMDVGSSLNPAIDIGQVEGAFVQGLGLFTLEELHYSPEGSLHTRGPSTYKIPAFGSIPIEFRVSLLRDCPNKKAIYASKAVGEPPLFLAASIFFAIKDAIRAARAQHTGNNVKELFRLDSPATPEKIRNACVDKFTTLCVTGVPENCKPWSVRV

Q: Which IC50 does the source give for `O=C(O)CSc1nnc(Br)n1-c1ccc(C2CC2)c2ccccc12` here?
A: > 300 µM
